From US7973075B2, “Kainate receptor-selective epimeric analogs of dysiherbaine” (priority 2007, dated 2011)
Entries after “also recorded” stand apart in the source; their conditions may differ. Like-named read-outs stand apart in the source and are kept apart here.

Legend:
[1] = target: T1, GluR5-2a (Rattus norvegicus, UniProt P22756, DEL402-416); test: Whole-cell patch clamp recordings, transfected HEK-293-T/17 cells, Example 2; assay type: cell-based; settings: for time constant for recovery of glutamate-evoked currents, τ: after 2.5 min application of 30 μM analog; for agonist activity: analog-evoked currents from GluR5-2a receptors (words): 1 s test application of the analog at a high concentration (10-100 μM); for inhibition of glutamate-evoked current, GluR5-2a: pre-application of 1 μM analog, 10 mM glutamate; for recovery of glutamate-evoked currents after analog application, GluR5-2a: 30 μM analog
T1 construct: expressed in transfected cells; host or cells: HEK-293-T/17
Protocol: Cell Culture and Electrophysiology. HEK-293-T/17 cells were maintained in Dulbecco's modified Eagle's medium (DMEM) supplemented with 100 μg/mL penicillin, 100 μg/mL streptomycin, and 10% heat inactivated fetal bovine serum. One day before transfection, HEK-T/17 cells were plated at low density on glass coverslips coated with 100 μg/ml poly-D-lysine and 100 μg/ml collagen. Cells were transfected with receptor cDNAs ([…]) in combination with enhanced green fluorescent protein (eGFP) cDNA for visualization of transfected cells. Transfections were carried out with Fugene6 (Roche Applied Science) according to the manufacturer's protocol and used 2-3 days following transfection. Internal solution consisted of 110 mM CsF, 30 mM CsCl, 4 mM NaCl, 0.5 mM CaCl2, 10 mM HEPES, and 5 mM EGTA, and was adjusted to pH=7.3 with CsOH. The external solution contained 150 mM NaCl, 2.8 mM KCI, 2 mM CaCl2, 1 mM MgCl2, and 10 mM HEPES, adjusted to pH=7.3 with NaOH. Patch electrodes from thick-walled borosilicate glass (Warner Instruments, Hamden, Conn.) were pulled to a final resistance of 1.5 to 2.5 MO after fire polishing. […] To determine the pre-desensitization IC50 of selected analogs, several control glutamate (10 mM) applications were followed by a 2.5 minute application of various concentrations of 8-deoxy-neoDH, 9-deoxy-neoDH, or MSVIII-19, after which the analogs were co-applied with glutamate. A similar protocol was followed to measure the recovery of glutamate-evoked currents, with the exception that the analogs were not co-applied with glutamate. Whole cell patch clamp recordings were carried out using an Axopatch 200B amplifier (Axon Instruments). Data were analyzed with Origin 7.5 (OriginLab Corp.), and Prism4 (GraphPad Software Inc.); inhibition-response curves were plotted and fit with a one-site competition curve constrained to fixed minima (0) and maxima (100).
Because neoDH and its natural analog, dysiherbaine (DH), both act as KAR agonists, we tested each of the analogs for agonist activity using whole-cell patch clamp recordings. Application of saturating concentrations of glutamate (10 mM) to a transiently transfected HEK-293-T/17 cell was first done to obtain a rapidly activating and desensitizing control current; this was then followed by a test application of the analog at a high concentration (10-100 μM).
9-deoxy-neoDH and the di-deoxy antagonist, MSVIII-19, have very similar binding profiles on GluR5-2a and other subunits (Sanders et al., 2005), but both their functional activities and behavioral properties differ. 9-deoxy-neoDH elicits small but reproducible currents from GluR5-2a receptors (FIG. 8B), whereas MSVIII-19 behaves as an antagonist (Sanders et al., 2005). To further compare the activity of these compounds and the high-affinity agonist 8-deoxy-neoDH on GluR5-2a receptors, we determined their respective IC50s for pre-desensitization of the receptor (FIG. 9). Responses to 10 mM glutamate were elicited to determine the control current amplitudes for GluR5-2a expressing cells; receptors were then pre-desensitized with low concentrations of the analog (8-deoxy-neoDH or 9-deoxy-neoDH) before test co-applications with glutamate.
Several analogs, including the parent compounds DH and neoDH, induce a very stable, ligand-bound desensitized conformation of GluR5-2a and GluR6a receptors that occludes subsequent activation of the receptors for long periods of time. We measured the duration of the interaction of Group I analogs with GluR5-2a receptors by determining the time course of recovery of glutamate-evoked currents after application of the analogs (for 2.5 min) (FIG. 10). In FIG. 10A, traces on the left are representative control glutamate-evoked currents; traces on the right are glutamate-evoked currents ten minutes after exposure to 8-deoxy-neoDH, 9-deoxy-neoDH, or MSVIII-19 (each at 30 μM). […]

[2] = tested on: mice; settings: Shoji et al., 2006, cited from earlier work; for ED50 seizure activity: i.c.v. injection, mice; for convulsant behavior, from the literature: i.c.v., Sasaki et al., 1999, Sakai et al., 2001a
[3] = target: T2, GluR2(i) (Rattus norvegicus, UniProt P19491); test: Radioligand binding ([3H]AMPA displacement), HEK-293-T/17 membranes, Example 2; settings: Cheng-Prusoff
T2 construct: expressed in transfected cells; host or cells: HEK-293-T/17
Protocol: (§1) Radioligand binding. Membrane preparations from HEK-293-T/17 cells were prepared and used in radioligand binding assays as described previously (Sanders et al., 2005). Unlabeled analogs were used to displace [3H]kainate (10-20 nM, PerkinElmer Life and Analytical Sciences, Boston, Mass.) or [3H]AMPA (20 nM, PerkinElmer Life and Analytical Sciences, Boston, Mass.) from KARs and AMPARs, respectively. Nonspecific binding was determined in the presence of 1 mM glutamate. After 1 hour incubation at 4° C., samples were harvested by rapid filtration onto Whatman GF/C membranes. Upon addition of scintillation fluid, membranes were incubated for 1 hour at room temperature. A Beckman LS5000TD scintillation counter was used for quantification (Beckman Coulter Inc., Fullerton, Calif.). Data were plotted and fit with a one-site competition curve with fixed minima and maxima using Prism 4 (GraphPad Software, Inc). Ki's were calculated with the Cheng-Prusoff equation using the determined IC5o values and the radioligand Kd. Data were plotted and fit with a one-site competition curve with fixed minima (0) and maxima (100) (Prism4, GraphPad Software, Inc.). Correlation analysis was performed with these binding data and the seizure activity of each analog, represented as ED50 values.
(§2) The pharmacological profiles of the Group I analogs, 8-deoxy-neoDH and 9-deoxyneoDH, were analyzed initially in radioligand binding experiments with expressed recombinant AMPA and kainate receptor subunits. Displacement of [3H]kainate from cell membranes with a range of analog concentrations yielded IC50 values that were then used to calculate Ki values for each analog/receptor combination. Both Group 1 analogs retained high affinity only for GluR5-2a KAR subunits (FIG. 8A). […] Weak binding to other KAR and AMPAR subunits was observed, with all Ki values estimated at >10 μM (n=3-5; Table 3, FIG. 8A).
(§3) For comparison, the Ki values for neoDH and MSVIII-19 are included in the table (Sanders et al., 2005). Removal of the C9 hydroxyl eliminated binding to all receptor subunits (Ki values estimated at >100 μM), with the exception of GluR5-2a KARs.

[4] = target: T3, GluR1(i) (Rattus norvegicus, UniProt P19490); test: as above; settings: Cheng-Prusoff
T3 construct: expressed in transfected cells; host or cells: HEK-293-T/17
Protocol: as §1, §2, §3

T3 sequence (P19490 19-907 isoform P19490-2 limits assumed): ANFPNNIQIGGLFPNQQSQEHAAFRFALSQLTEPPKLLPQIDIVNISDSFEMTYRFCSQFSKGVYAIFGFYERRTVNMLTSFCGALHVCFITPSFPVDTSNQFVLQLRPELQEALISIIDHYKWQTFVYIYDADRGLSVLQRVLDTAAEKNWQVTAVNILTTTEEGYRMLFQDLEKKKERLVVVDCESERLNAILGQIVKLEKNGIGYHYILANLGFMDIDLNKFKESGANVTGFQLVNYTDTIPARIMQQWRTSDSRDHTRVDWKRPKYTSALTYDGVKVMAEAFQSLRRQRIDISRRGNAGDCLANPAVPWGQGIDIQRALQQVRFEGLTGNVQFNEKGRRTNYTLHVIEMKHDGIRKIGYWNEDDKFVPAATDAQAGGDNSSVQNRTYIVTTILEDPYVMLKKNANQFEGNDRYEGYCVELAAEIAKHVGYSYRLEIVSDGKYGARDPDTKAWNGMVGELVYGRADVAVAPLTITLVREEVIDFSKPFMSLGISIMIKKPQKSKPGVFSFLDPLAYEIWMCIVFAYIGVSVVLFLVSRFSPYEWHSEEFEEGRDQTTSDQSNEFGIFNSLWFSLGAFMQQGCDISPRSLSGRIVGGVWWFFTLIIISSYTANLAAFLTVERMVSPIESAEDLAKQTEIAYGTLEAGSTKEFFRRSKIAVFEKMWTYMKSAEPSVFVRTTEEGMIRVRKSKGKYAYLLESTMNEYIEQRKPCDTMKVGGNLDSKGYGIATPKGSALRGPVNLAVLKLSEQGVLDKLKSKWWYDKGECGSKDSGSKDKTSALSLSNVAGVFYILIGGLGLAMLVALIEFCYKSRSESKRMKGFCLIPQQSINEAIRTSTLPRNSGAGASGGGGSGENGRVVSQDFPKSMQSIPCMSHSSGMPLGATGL
T2 sequence (P19491 22-883 isoform P19491-2 limits assumed): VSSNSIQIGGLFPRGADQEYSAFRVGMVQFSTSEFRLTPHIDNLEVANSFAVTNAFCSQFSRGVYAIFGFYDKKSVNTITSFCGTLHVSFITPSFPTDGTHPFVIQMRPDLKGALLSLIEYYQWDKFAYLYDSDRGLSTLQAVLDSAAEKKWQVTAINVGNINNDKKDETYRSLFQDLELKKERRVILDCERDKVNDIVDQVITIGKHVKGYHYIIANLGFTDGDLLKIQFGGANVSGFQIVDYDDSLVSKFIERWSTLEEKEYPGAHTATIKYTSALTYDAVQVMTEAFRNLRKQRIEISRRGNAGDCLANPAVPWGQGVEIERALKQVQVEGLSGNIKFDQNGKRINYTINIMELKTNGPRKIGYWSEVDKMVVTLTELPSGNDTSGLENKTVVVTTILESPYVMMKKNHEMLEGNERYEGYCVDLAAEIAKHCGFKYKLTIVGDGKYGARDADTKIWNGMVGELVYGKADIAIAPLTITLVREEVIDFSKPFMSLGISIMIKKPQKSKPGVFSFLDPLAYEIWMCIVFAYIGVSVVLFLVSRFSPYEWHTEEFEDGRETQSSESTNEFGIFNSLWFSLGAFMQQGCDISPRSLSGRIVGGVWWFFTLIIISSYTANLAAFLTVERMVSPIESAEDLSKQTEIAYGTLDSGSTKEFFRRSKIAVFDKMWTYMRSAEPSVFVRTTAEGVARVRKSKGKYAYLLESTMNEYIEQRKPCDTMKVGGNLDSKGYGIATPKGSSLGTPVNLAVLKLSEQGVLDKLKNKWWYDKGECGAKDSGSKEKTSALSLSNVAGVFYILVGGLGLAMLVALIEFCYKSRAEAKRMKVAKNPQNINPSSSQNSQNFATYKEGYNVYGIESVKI
T1 sequence (P22756 with tags, fused parts or gaps isoform P22756-2 limits assumed, stated change not applied): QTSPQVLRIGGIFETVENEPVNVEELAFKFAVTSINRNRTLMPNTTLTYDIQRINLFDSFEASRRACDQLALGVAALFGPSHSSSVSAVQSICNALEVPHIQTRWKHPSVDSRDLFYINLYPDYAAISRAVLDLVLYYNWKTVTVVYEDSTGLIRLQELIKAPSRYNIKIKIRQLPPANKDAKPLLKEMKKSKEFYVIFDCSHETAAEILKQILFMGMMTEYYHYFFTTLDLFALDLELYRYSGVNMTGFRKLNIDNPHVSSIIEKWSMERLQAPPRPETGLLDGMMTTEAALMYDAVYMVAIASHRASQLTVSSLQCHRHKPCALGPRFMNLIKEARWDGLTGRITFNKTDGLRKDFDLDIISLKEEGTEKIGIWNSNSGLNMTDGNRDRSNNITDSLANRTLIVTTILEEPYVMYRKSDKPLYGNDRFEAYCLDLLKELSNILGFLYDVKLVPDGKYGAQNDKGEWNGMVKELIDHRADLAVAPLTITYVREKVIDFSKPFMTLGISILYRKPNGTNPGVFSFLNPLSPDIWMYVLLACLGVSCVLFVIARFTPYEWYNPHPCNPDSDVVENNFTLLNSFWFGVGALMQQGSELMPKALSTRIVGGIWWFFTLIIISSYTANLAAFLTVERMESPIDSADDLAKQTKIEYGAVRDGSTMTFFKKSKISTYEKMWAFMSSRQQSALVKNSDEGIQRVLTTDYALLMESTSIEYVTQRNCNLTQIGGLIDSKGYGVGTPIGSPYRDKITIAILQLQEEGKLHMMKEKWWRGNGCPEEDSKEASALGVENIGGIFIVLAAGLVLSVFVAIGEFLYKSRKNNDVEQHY

SMILES	ED50 seizure activity [2]	convulsant behavior, from the literature [2]	agonist activity: analog-evoked currents from GluR5-2a receptors (words) [1]	Ki ([3]; read-out: Ki GluR2(i)) [µM]	Ki ([4]; read-out: Ki GluR1(i)) [µM]	recovery of glutamate-evoked currents after analog application, GluR5-2a [1]	also measured
N[C@@H](C[C@]1(C(=O)O)C[C@H]2OCCC[C@H]2O1)C(=O)O [MSVIII-19, 8,9-dideoxy-neoDH]	6.3 nmol/mouse	sub-seizure stereotyped behavior followed by unresponsiveness	–	–	–	–	time constant for recovery of glutamate-evoked currents, τ [1]: 1.4 s
N[C@@H](C[C@]1(C(=O)O)C[C@H]2OCC[C@@H](O)[C@H]2O1)C(=O)O [9-deoxy-neoDH]	7.1 nmol/mouse	–	elicited currents; also recorded: very weak agonist; also recorded: GluR5 agonists	> 100	> 100	–	IC50 ([1]; 2.5 min analog application, then co-application with 10 mM glutamate, read-out: IC50 for pre-desensitization of GluR5-2a receptors): 0.151 µM; time constant for recovery of glutamate-evoked currents, τ [1]: 1.5 s; inhibition of glutamate-evoked current, GluR5-2a [1]: inhibited but did not abolish
NC(CC1(C(=O)O)CC2OCC(F)C(O)C2O1)C(=O)O (stereo not drawn) [9-F-8-epi-neoDH]	374 pmol/mouse	–	elicited rapidly activating currents; also recorded: elicited large desensitizing currents with variable kinetics	> 100	> 100	–	–
N[C@@H](C[C@@]1(C(=O)O)CC2OCC(O)C(O)C2O1)C(=O)O (single isomer, unassigned) [2,4-epi-neoDH, 2,4-epi-neodysiherbaine]	11.4 nmol/mouse	weakly convulsant	failed to elicit detectable current; also recorded: antagonist (or possibly a very weak partial agonist); also recorded: fails to activate GluR5 or GluR6 receptors, even at 100 μM	> 100	> 100	remained associated with the GluR5-2a receptor for many minutes	IC50 ([1]; 10 mM glutamate in continued presence of analog, read-out: IC50 inhibition of glutamate-evoked currents, GluR5-2a): 7.5 µM; agonist activity: analog-evoked currents from GluR5-2a receptors (words) ([1]; listed as 2,4-epineoDH): fails to activate; ED50 seizure activity ([2]; listed as 2,4epi-neoDH): 11.4 nmol/mouse
NC(CC1(C(=O)O)CC2OCC(O)C(O)C2O1)C(=O)O (stereo not drawn) [8-epi-neoDH, 8-epi-neodysiherbaine]	283 pmol/mouse	–	elicited rapidly activating currents	23	16	–	agonist activity: analog-evoked currents from GluR5-2a receptors (words) ([1]; listed as 8-epineoDH): elicited large desensitizing currents with variable kinetics
NC(CC1(C(=O)O)CC2OCC(O)C(O)C2O1)C(=O)O (stereo not drawn) [9-epi-neoDH, 9-epi-neodysiherbaine]	8.6 nmol/mouse	–	elicited rapidly activating currents; also recorded: elicited very small amplitude, weakly desensitizing currents; also recorded: very weak partial agonists	> 100	> 100	–	–
N[C@@H](C[C@@]1(C(=O)O)CC2OCC(O)C(O)C2O1)C(=O)O (single isomer, unassigned) [4-epi-neoDH, 4-epi-neodysiherbaine]	1.7 nmol/mouse	weakly convulsant	evoked small but detectable currents; also recorded: elicits large currents; also recorded: activates	> 30	> 30	remained associated with the GluR5-2a receptor for many minutes	–
NC(CC1(C(=O)O)CC2OCC(O)C(O)C2O1)C(=O)O (stereo not drawn) [8,9-epi-neoDH, 8,9-epi-neodysiherbaine]	–	–	failed to activate GluR5-2a-expressing cells	> 100	> 100	–	agonist activity: analog-evoked currents from GluR5-2a receptors (words) ([1]; listed as 8,9epi-neoDH): failed to elicit a detectable current; inhibition of glutamate-evoked currents in GluR5-2a-expressing cells ([1]; high test concentrations, data not shown): modestly inhibited
N[C@@H](C[C@]1(C(=O)O)C[C@H]2OC[C@@H](O)C[C@H]2O1)C(=O)O [8-deoxy-neoDH]	238 pmol/mouse	–	elicited currents; also recorded: full agonist, or a highly efficacious partial agonist; also recorded: full agonists or highly efficacious partial agonists; also recorded: GluR5 agonists	–	–	completely attenuated glutamate currents in response to glutamate for up to 15 min; also recorded: remained associated beyond the duration of the experiments	IC50 [1]: 0.000238 µM; inhibition of glutamate-evoked current, GluR5-2a [1]: completely inhibited; Ki ([3]; Ki GluR2(i)): > 100 µM; Ki ([4]; Ki GluR1(i)): > 100 µM
